PMC4963535, “Structure-guided development of heterodimer-selective GPCR ligands” (Nature Communications, 2016)
Entries after “also recorded” stand apart in the source; their conditions may differ. Blank lines part the entries; values can stand above or below the compound they belong to.

Assays:
hD3R = target: T1, hD3R (Homo sapiens, UniProt P35462); assay: [3H]spiperone displacement, membranes from CHO cells stably expressing hD3R; assay type: binding
T1 construct: expressed in transfected cells
T1 sequence (P35462 whole entry): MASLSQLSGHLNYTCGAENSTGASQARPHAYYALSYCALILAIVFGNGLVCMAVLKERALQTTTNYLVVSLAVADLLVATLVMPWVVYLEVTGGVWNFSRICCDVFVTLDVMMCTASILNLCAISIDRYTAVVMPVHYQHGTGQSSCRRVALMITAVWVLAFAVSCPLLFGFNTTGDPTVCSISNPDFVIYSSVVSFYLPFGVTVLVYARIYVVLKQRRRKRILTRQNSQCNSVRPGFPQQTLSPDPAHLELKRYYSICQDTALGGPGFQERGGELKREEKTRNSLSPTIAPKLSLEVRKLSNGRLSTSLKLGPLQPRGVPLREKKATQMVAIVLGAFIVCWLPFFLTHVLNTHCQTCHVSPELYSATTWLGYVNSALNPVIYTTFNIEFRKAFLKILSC

hD4.4R = target: T2, hD4.4R (Homo sapiens, UniProt P21917); assay: [3H]spiperone displacement, membranes from CHO cells stably expressing hD4.4R; assay type: binding
T2 construct: expressed in transfected cells
T2 sequence (P21917 1-419): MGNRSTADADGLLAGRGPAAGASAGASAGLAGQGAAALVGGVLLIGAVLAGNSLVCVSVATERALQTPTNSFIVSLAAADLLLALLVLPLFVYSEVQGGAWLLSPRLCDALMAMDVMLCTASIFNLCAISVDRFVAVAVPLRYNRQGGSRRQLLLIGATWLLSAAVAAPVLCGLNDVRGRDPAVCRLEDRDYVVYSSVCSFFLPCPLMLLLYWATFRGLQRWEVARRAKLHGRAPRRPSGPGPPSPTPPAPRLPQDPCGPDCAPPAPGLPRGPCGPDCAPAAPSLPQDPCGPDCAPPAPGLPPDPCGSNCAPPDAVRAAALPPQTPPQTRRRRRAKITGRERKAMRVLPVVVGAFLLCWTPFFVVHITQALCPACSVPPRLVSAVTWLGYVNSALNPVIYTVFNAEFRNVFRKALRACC
Source text: (§1) In brief, competition binding experiments with the human D2LR, D2SR38, D3R39, and D4.4R40 receptors were perfomed using preparations of membranes from CHO cells stably expressing the corresponding receptor together with
(§2) the D2LR, D2SR, D3R, and D4.4R receptors, respectively. Homogenates from CHO cells stably expressing the human NTS1R (cDNA purchased from Missouri S&T cDNA Resource Center (UMR), Rolla, MO) at
(§3) 1; PerkinElmer, Rodgau, Germany). Human NTS2R binding was achieved using homogenates from HEK
(§4) method41. Membranes were incubated at a final concentration of 4 µg per well with Bmax values of 350-
(§5) Freiburg, Germany). Unspecific binding was determined in the presence of haloperidol (10 µM for D2LR-
(§6) Protein concentration was established by the method of Lowry using bovine serum albumin as standard42.

D2SR = target: T3, D2SR (Homo sapiens, UniProt P14416); assay: cAMP BRET assay (CAMYEL biosensor), HEK 293 T cells expressing D2SR; assay type: cell-based
T3 construct: expressed in transfected cells; host or cells: HEK 293 T
T3 sequence (P14416 1-414 isoform P14416-2): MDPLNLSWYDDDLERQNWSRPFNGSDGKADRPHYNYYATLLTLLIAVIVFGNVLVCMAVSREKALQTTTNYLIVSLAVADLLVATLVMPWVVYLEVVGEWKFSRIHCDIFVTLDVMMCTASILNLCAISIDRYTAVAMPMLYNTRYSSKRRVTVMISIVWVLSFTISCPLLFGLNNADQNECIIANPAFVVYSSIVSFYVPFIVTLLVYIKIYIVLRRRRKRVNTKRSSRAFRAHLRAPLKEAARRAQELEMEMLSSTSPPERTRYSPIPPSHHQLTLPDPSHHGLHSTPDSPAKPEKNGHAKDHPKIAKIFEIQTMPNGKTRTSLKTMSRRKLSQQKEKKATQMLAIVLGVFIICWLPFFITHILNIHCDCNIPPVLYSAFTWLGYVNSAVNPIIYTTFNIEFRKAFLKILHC
Procedure: (§7) 24 h post-transfection cells were seeded into white half-area 96-well plates at 2.0 × 10^4 cells per well and grown overnight. On the following day phenol red free medium was removed and replaced by PBS and cells were serum starved for 1 h before treatment. The assay was started by adding 10 μl coelenterazine-h (Promega, Mannheim, Germany) to each well to yield a final concentration of 5 μM. After 5 min incubation, compounds were added in PBS containing 50 μM forskolin (final concentration 10 μM). Reads of the plates started 15 min after agonist addition. BRET readings were collected using a CLARIOstar plate reader (BMG LabTech, Ortenberg, Germany). […] Curves were normalized to basal BRET ratio obtained from dPBS (0%) and the effect of 10 μM forskolin (100%).

D2SR/NTS1R = target: T4, D2SR/NTS1R (Homo sapiens, UniProt P14416+P30989); assay: cAMP BRET assay (CAMYEL biosensor), HEK 293 T cells coexpressing D2SR and NTS1R; assay type: cell-based; conditions: for Emax: HEK-293T, read-out: Effect (Emax) D2SR/NTS1R, cAMP accumulation
T4 construct: expressed in transfected cells; host or cells: HEK 293 T
T4 sequence (P14416 1-414 isoform P14416-2): as above
T4 sequence (P30989 whole entry): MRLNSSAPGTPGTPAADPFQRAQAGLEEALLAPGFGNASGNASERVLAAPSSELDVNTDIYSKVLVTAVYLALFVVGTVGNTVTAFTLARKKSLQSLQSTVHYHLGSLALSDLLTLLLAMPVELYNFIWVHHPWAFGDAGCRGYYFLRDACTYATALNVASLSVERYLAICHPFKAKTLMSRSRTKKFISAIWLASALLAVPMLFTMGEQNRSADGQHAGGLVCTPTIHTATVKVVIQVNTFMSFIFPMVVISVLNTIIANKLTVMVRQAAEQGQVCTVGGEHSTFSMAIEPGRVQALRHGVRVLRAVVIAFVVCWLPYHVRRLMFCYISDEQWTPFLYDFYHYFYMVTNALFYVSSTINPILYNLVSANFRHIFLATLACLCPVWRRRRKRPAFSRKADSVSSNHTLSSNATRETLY
Procedure: as §7

D2R = target: T5, D2R (Homo sapiens, UniProt P14416); assay: Antagonist effect on quinpirole-mediated inhibition of cAMP accumulation, HEK 293T cells expressing D2R; assay type: cell-based; conditions: 10 nM quinpirole
T5 construct: expressed in transfected cells; host or cells: HEK 293 T
T5 sequence (P14416 1-414 isoform P14416-2): as the sequence (P14416 1-414 isoform P14416-2) above
Procedure: as §7

D2R/NTS1R = target: T6, D2R/NTS1R (Homo sapiens, UniProt P14416+P30989); assay: β-arrestin-2 recruitment (DiscoveRx PathHunter), HEK 293 cells with ProLink-tagged D2R and NTS1R; assay type: cell-based; conditions: D2R/NTS1R-coexpressing cells
T6 construct: host or cells: HEK 293 stably expressing EA-tagged β-arrestin-2
T6 sequence (P14416 1-414 isoform P14416-2): as above
T6 sequence (P30989 whole entry): as the sequence (P30989 whole entry) above
Procedure: (§8) The measurement of β-arrestin-2 recruitment stimulated by receptor activation was performed by utilizing the PathHunter assay purchased from DiscoveRx (Birmingham, UK) according to the manufacturer's protocol. […] Dose–response curves were calculated by nonlinear regression using the algorithms of PRISM 6.0. Control experiments were performed using the same approach and transfection of ProLink(PK1)-tagged PAR2 together with wild-type NTS1R. […] Resulting responses were then normalized to the effect of the PAR2 agonist f-LIGRLO-NH2.

D2R_D80A/NTS1R [1] = target: T7, D2R_D80A/NTS1R (Homo sapiens, UniProt P14416+P30989, D80A); assay: β-arrestin-2 recruitment (DiscoveRx PathHunter), ProLink-tagged signalling incompetent D2R_D80A coexpressed with NTS1R; assay type: cell-based
T7 construct: host or cells: HEK 293 stably expressing EA-tagged β-arrestin-2
T7 sequence (P14416 1-414 isoform P14416-2 D80A): as the sequence (P14416 1-414 isoform P14416-2) above, with D80A counted along it
T7 sequence (P30989 whole entry): as the sequence (P30989 whole entry) above
Procedure: as §8

D2LR/NTS1R = D2LR/NTS1R (Homo sapiens, UniProt P14416+P30989); assay: [3H]spiperone displacement, membranes from HEK 293 T cells coexpressing D2LR and NTS1R
Chain of D2LR/NTS1R (P14416 whole entry): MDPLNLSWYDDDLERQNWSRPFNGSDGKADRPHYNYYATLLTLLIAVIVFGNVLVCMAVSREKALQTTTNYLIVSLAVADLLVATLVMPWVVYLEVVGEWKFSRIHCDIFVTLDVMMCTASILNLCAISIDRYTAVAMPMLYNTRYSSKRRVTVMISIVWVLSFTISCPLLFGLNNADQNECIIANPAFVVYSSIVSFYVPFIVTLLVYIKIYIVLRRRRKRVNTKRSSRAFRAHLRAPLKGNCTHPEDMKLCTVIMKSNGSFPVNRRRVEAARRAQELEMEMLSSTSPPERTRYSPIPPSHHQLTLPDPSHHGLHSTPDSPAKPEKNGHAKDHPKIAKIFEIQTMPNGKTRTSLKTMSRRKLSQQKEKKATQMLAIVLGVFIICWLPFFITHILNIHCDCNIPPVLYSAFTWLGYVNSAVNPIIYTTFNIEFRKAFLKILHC
Chain of D2LR/NTS1R (P30989 whole entry): as the sequence (P30989 whole entry) above
Procedure: (§9) Receptor-binding studies were carried out in analogy to a previously described method[53]. […] Protein concentration was established by the method of Lowry using bovine serum albumin as standard[54].
(§10) The resulting competition curves of the receptor-binding experiments were analysed by nonlinear regression using the algorithms in PRISM 6.0 (GraphPad Software, San Diego, CA). For each individual experiment, the data were fitted using a monophasic competition model to provide an IC50 value, which was then transformed into a Ki value according to the equation of Cheng and Prusoff[55].

human D2LR = target: T8, human D2LR (Homo sapiens, UniProt P14416); assay: [3H]spiperone displacement, membranes from HEK 293 T cells transiently transfected with D2LR; assay type: binding; conditions: D2LR monoexpression; mean ± s.e.m.
T8 construct: host or cells: HEK 293 T
T8 sequence (P14416 whole entry): as the sequence (P14416 whole entry) above
Procedure: as §9, §10

hD2LR = target: T9, hD2LR (Homo sapiens, UniProt P14416); assay: [3H]spiperone displacement, membranes from CHO cells stably expressing hD2LR; assay type: binding
T9 construct: expressed in transfected cells
T9 sequence (P14416 whole entry): as above

hD2SR = target: T10, hD2SR (Homo sapiens, UniProt P14416); assay: [3H]spiperone displacement, membranes from CHO cells stably expressing hD2SR; assay type: binding
T10 construct: expressed in transfected cells
T10 sequence (P14416 1-414 isoform P14416-2): as the sequence (P14416 1-414 isoform P14416-2) above
Source text: as §1, §2, §3, §4, §5, §6

NTS1R [2] = target: T11, NTS1R (Homo sapiens, UniProt P30989); assay: radioligand displacement, homogenates from CHO cells stably expressing human NTS1R; assay type: binding; conditions: [3H]NT, mean ± s.d.
T11 sequence (P30989 whole entry): as the sequence (P30989 whole entry) above
Source text: as §1, §2, §3, §4, §5, §6

hNTS2R = target: T12, hNTS2R (Homo sapiens, UniProt O95665); assay: [3H]NT(8-13) displacement, homogenates from transiently transfected HEK 293T cells, human NTS2R; assay type: binding
T12 construct: host or cells: HEK 293T
T12 sequence (O95665 whole entry): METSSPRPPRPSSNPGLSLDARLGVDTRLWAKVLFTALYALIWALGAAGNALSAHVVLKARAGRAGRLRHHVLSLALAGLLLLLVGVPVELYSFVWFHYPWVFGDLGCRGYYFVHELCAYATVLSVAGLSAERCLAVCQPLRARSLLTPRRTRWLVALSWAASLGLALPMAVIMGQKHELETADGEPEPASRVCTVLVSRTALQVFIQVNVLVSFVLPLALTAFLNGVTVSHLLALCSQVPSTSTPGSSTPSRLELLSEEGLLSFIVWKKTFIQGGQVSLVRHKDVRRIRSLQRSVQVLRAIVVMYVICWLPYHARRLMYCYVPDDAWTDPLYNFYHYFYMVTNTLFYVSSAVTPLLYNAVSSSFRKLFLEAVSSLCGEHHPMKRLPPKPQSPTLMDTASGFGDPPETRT
Source text: as §1, §2, §3, §4, §5, §6

D2R_D80A/NTS1R [3] = target: T7, D2R_D80A/NTS1R; assay: cAMP accumulation, cells coexpressing signalling incompetent D2R (D80A) and NTS1R; assay type: cell-based
Procedure: as §7
inhibit cAMP accumulation.
Data represent mean ± s.e.m.
of 3 independent experiments, each performed in triplicate.

NTS1R [4] = target: T11, NTS1R; assay: cAMP BRET assay (CAMYEL biosensor), HEK 293 T cells expressing NTS1R; assay type: cell-based; design: expressed in transfected cells; host or cells: HEK 293 T
Procedure: as §7

SMILES: CC[C@H](C)[C@H](NC(=O)[C@H](Cc1ccc(O)cc1)NC(=O)[C@@H]1CCCN1C(=O)[C@H](CCCNC(=N)N)NC(=O)[C@H](CCCNC(=N)N)NC(=O)CCOCCOCCOCCOCCOCCOCCNC(=O)CCOCCOCCOCCOCCOCCOCCNC(=O)c1ccc(-c2ccc(-n3cc(CCCCN4CCN(c5ccccc5OC)CC4)nn3)cc2)cc1)C(=O)N[C@@H](CC(C)C)C(=O)O [2b]
- Ki (hD3R): 5.5 ± 0.9 nM
- Ki (hD4.4R): 180 ± 20 nM
- effect on forskolin-induced cAMP accumulation, cells expressing D2R only (in words) (D2SR; 10 μM forskolin): remained without significant effects
- Emax (D2SR/NTS1R): 31 ± 3%
- change of cAMP levels in the absence of forskolin (D2SR/NTS1R; no forskolin, vehicle 0 %, maximum effect of NT(8-13) 100 %): 83%
- antagonist behaviour at D2R (in words) (D2R): neutral antagonists; also recorded: fully inhibit the effect of 10 nM quinpirole
- concentration of maximum β-arrestin-2 recruitment (bell-shaped curve) (D2R/NTS1R): 300 nM
- concentration of maximum effect (bell-shaped curve), D2R_D80A/NTS1R (D2R_D80A/NTS1R [1]): 300 nM
- preference for the high- over the low-affinity binding site in the presence of GppNHp (D2LR/NTS1R; 100 μM GppNHp): 330 fold
- Fraction high (fraction representing the high-affinity binding site) (D2LR/NTS1R; D2LR:NTS1R 1:2, mean ± s.e.m.): 55 ± 3%
- high affinity binding sites (fraction) (D2LR/NTS1R; D2R/NTS1R = 2:1): 49 ± 3%
- high affinity binding sites (fraction) (D2LR/NTS1R; D2R/NTS1R = 3:1): 30 ± 3%
- fraction high +GppNHp (D2LR/NTS1R; in presence of 100 μM GppNHp): 46 ± 3%

- Ki (human D2LR): 21 ± 4 nM
- Ki (hD2LR): 7.6 ± 1.7 nM
- Ki (hD2SR): 3.3 ± 0.8 nM
- Ki (hD3R): 0.53 ± 0.25 nM
- Ki (NTS1R [2]): 180 ± 40 nM
- Ki (hNTS2R): 300 ± 250 nM
- Emax (D2SR; HEK-293T, read-out: Effect (Emax) D2SR, cAMP accumulation): -65 ± 1%
- EC50 (D2SR; read-out: EC50 D2SR, cAMP accumulation): 2.8 ± 0.4 nM
- Emax (D2SR/NTS1R): -63 ± 2%
- EC50 (D2SR/NTS1R; read-out: EC50 D2SR/NTS1R, cAMP accumulation): 3.5 ± 1.4 nM
- inhibition of cAMP accumulation, D2R (D80A)/NTS1R (in words) (D2R_D80A/NTS1R [3]): unable to inhibit cAMP accumulation
- receptor activation (cAMP), cells monoexpressing NTS1R (in words) (NTS1R [4]; 10 μM forskolin): caused no effect
- cAMP response, cells expressing NTS1R only, absence of FSK (in words) (NTS1R [4]; no forskolin): do not elicit any response
SMILES: CCCN(CCCCc1cn(-c2ccc(-c3ccc(C(=O)NCCOC)cc3)cc2)nn1)C1Cc2ccccc2C1 [3g]
